What was measured:
[1] = Release behavior of citric acid from liposomes in a weakly basic environment (pH meter); format: physicochemical; conditions: after pH of the mixture changed to 7.5 to 8.5 with sodium hydroxide
Method: The release behavior of citric acid from liposomes was studied in a weakly basic environment. First, to an aqueous liquid of citric acid having liposomes dispersed therein ([lipid]=250 μM, 4 mL) or an aqueous solution of citric acid (30 mM, pH 2.2, 4 mL), 2M aqueous sodium hydroxide (170 μL) was added to adjust the pH of the mixture to 6.5. Then, 300 mM aqueous sodium hydroxide (60 μL) was added to change the pH of the mixture to 7.5 to 8.5. The subsequent pH change behavior was monitored over time with a pH meter.

[2] = pH change behavior of citric acid-loaded liposomes added to aqueous sodium hydroxide; format: physicochemical; conditions: upon addition to 4 mL of 300 μM aqueous sodium hydroxide (pH 10.5)
Method: Each lipid mixture (20 mg) was hydrated in 20 mM citric acid (pH 2.2), and the dispersion was subjected to extrusion (final pore size: 0.22 μm) to prepare liposomes having a particle size of 200 to 300 nm. When required, pH change behavior was measured with a pH meter immediately after addition of the liposome dispersion ([lipid]=55 mg/mL, 10 μL) or citric acid (20 mM, 10 μL) to 4 mL of 300 μM aqueous sodium hydroxide (pH 10.5).

O=C(O)CC(O)(CC(=O)O)C(=O)O [citric acid]
nearly constant pH reached [1]: ~7 | pH reached (sudden decrease) [2]: 7.0
